Publication PMC11578313, “Miniaturized Modular Click Chemistry‐enabled Rapid Discovery of Unique SARS‐CoV‐2 M^pro Inhibitors With Robust Potency and Drug‐like Profile” (Advanced Science, 2024)
Values joined by “and” are separate entries in the source; they are usually repeats but may differ in a detail not shown here. Equal values may be shown once. Read-outs that look alike come from different tables or passages of the source.

Assay: In vivo pharmacokinetic study in male ICR mice (compound alone)
Conditions: for C0: read-out: C0
Method: The pharmacokinetics profile of the newly developed antiviral compound C5N17B was subsequently evaluated in male ICR mice that were free from specific pathogens, aiming to assess its potential for therapeutic application in vivo.
A total of six male ICR mice were randomly assigned to two groups. One group received the test drug intravenously at a dosage of 2 mg kg^−1, while the other group received oral administration at a dosage of 10 mg kg^−1. To prepare solutions of C5N17B, 2.39 mg compound was dissolved in a mixture of 0.119 mL DMSO, 0.238 mL polyoxyl 15 hydroxystearate (Solutol), and 2.027 mL normal saline. For the intravenous group, blood samples were collected from the sinus jugular into heparinized centrifugation tubes at various time points after dosing: 5, 15, 30 min, 1, 2, 4, 6, 8, and 24 h. As for the oral administration group, blood samples were collected at similar time points (0.05 mL of blood each time). The collected blood samples were then centrifuged at a speed of 4000 rpm for 10 min to separate plasma, which was subsequently stored at −20 °C until further LC‐MS analysis to determine the concentration of C5N17B. Briefly, the analysis involved adding 20 µL of plasma, sample calibration standard, quality control, and dilution quality control, and blank samples into respective wells on a 96‐well plate. Then each sample was quenched with 200 µL of internal standard (the blank sample was quenched with 200 µL of ACN: MeOH = 1:1), followed by vortex‐mixed for 5 min, and centrifuged for 0.5 min at 4000 rpm, 4 °C. Next, a 100 µL portion of supernatant was transferred to another clean 96‐well plate and diluted with 100 µL of water, vortex‐mixed for 5 min and centrifuged for 10 min at 4000 rpm, 4 °C, then the sample was injected for LC‐MS/MS analysis. All samples were quantified using an LC‐MS/MS‐AR Triple Quad 5500+ (SCIEX, USA) and the ExionLC liquid phase system. The mobile phase was 0.1% formic acid‐water/ACN with gradient elute at a flow rate of 0.8 mL mi^−1n (total time 2.20 min), and the detection wavelength was 225 nm. All blood samples were centrifuged using an Eppendorf 5424R centrifuge and quantified using an LC‐MS/MS‐AR Triple Quad 5500+ (SCIEX, USA). The pharmacokinetic parameters were calculated by WinNolin 8.2 software.

[1] = PO 10 mg/kg, individual mice 4-6, 10 mg/kg
[2] = i.v. 2 mg kg^−1, male ICR mice, n = 3

Cc1cncc(C(=O)N2C[C@H]3CC[C@@H](C2)N3[C@H](c2cccc(F)c2)c2cn(CCc3ccsc3)nn2)c1 [Compound C5N17B]
MRTINF_pred [1]: 295 min and 184.93 min and 381.5 min | MRTlast [1]: 113.8 min and 110 min | Tlast [1]: 4 h and 6 h | Vz_F_obs [1]: 837.29 L/kg and 630.24 L/kg and 684.762 L/kg | Vz_F_pred [1]: 906.828 L/kg and 630.882 L/kg and 737.02 L/kg | F, Mean (PO 10 mg/kg, mean of mice 4#-6#): 13.0% | C0, i.v. [2]: 514 ± 164.7 ng/mL | t1/2, i.v. [2]: 6.36 ± 0.341 min | concentration at 5 min (male, ICR, mouse, plasma, iv, 2 mg/kg, IV 2 mg/kg, 5 min (5 min), mouse plasma, individual mice 1#-3#, read-out: Plasma concentration (Calculated Concentration)): 292 ng/mL | concentration at 5 min (male, ICR, mouse, plasma, iv, 2 mg/kg, IV 2 mg/kg, 5 min, individual mice, read-out: plasma concentration): 233 ng/mL | concentration at 5 min (male, ICR, mouse, plasma, iv, 2 mg/kg, IV 2 mg/kg, 5 min, mean of mice 1#-3#, read-out: Plasma concentration, Mean): 237 ng/mL | concentration at 0.5 h (male, ICR, mouse, plasma, iv, 2 mg/kg, IV 2 mg/kg, 0.5 h (30 min), mouse plasma, individual mice 1#-3#, read-out: Plasma concentration (Calculated Concentration)): 18.4 ng/mL | concentration at 0.5 h (male, ICR, mouse, plasma, iv, 2 mg/kg, IV 2 mg/kg, 0.5 h, individual mice, read-out: plasma concentration): 16.1 ng/mL | concentration at 0.5 h (male, ICR, mouse, plasma, iv, 2 mg/kg, IV 2 mg/kg, 0.50 h, mean of mice 1#-3#, read-out: Plasma concentration, Mean): 14.9 ng/mL | concentration at […] (male, ICR, mouse, plasma, iv, 2 mg/kg, IV 2 mg/kg, […] (15 min), mouse plasma, individual mice 1#-3#, read-out: Plasma concentration (Calculated Concentration)): 55.3 ng/mL | AUC(0-t) (male, ICR, mouse, plasma, iv, 2 mg/kg, IV 2 mg/kg, individual mice 1#-3#, read-out: AUC0-t): 78.3 ng·h/mL | AUC(0-inf) (male, ICR, mouse, plasma, iv, 2 mg/kg, IV 2 mg/kg, individual mice 1#-3#, read-out: AUC0-∞): 81.1 ng·h/mL | C0 (male, ICR, mouse, plasma, iv, 2 mg/kg, IV 2 mg/kg, individual mice 1#-3#): 671 ng/mL | clearance (male, ICR, mouse, plasma, iv, 2 mg/kg, IV 2 mg/kg, individual mice 1#-3#, read-out: Cl (converted)): 411 mL/min/kg | Cmax (male, ICR, mouse, plasma, iv, 2 mg/kg, IV 2 mg/kg, individual mice 1#-3#, read-out: Cmax): 292 ng/mL | MRT last (male, ICR, mouse, plasma, iv, 2 mg/kg, IV 2 mg/kg, individual mice 1#-3#, read-out: MRT0-t): 5.42 min | MRT inf (male, ICR, mouse, plasma, iv, 2 mg/kg, IV 2 mg/kg, individual mice 1#-3#, read-out: MRT0-∞): 6.6 min | half-life (male, ICR, mouse, plasma, iv, 2 mg/kg, IV 2 mg/kg, individual mice 1#-3#, read-out: T1/2 (converted)): 6.42 min | Tmax (male, ICR, mouse, plasma, iv, 2 mg/kg, IV 2 mg/kg, individual mice 1#-3#, read-out: Tmax): 5 min | Vd (male, ICR, mouse, plasma, iv, 2 mg/kg, IV 2 mg/kg, individual mice 1#-3#, read-out: Vz): 3.82 L/kg | AUC(0-inf) (male, ICR, mouse, plasma, iv, 2 mg/kg, IV 2 mg/kg, individual mice 1-3, read-out: AUCINF_obs): 81.1 ng·h/mL | AUC(0-inf) (male, ICR, mouse, plasma, iv, 2 mg/kg, IV 2 mg/kg, individual mice 1-3, read-out: AUCINF_pred): 80.7 ng·h/mL | AUC (male, ICR, mouse, plasma, iv, 2 mg/kg, IV 2 mg/kg, individual mice 1-3, read-out: AUCall): 78.3 ng·h/mL | AUC(0-t) (male, ICR, mouse, plasma, iv, 2 mg/kg, IV 2 mg/kg, individual mice 1-3, read-out: AUClast): 78.3 ng·h/mL | C0 (male, ICR, mouse, plasma, iv, 2 mg/kg, IV 2 mg/kg, individual mice 1-3): 671 ng/mL | clearance (male, ICR, mouse, plasma, iv, 2 mg/kg, IV 2 mg/kg, individual mice 1-3, read-out: Cl_obs (converted)): 411 mL/min/kg | concentration at 0.5 h (male, ICR, mouse, plasma, iv, 2 mg/kg, IV 2 mg/kg, individual mice 1-3, read-out: Clast): 18.4 ng/mL | Cmax (male, ICR, mouse, plasma, iv, 2 mg/kg, IV 2 mg/kg, individual mice 1-3, read-out: Cmax): 292 ng/mL | k el (male, ICR, mouse, plasma, iv, 2 mg/kg, IV 2 mg/kg, individual mice 1-3, read-out: Lambda_z (converted)): 0.00179 s⁻¹ | MRT inf (male, ICR, mouse, plasma, iv, 2 mg/kg, IV 2 mg/kg, individual mice 1-3, read-out: MRTINF_obs): 6.61 min | MRT inf (male, ICR, mouse, plasma, iv, 2 mg/kg, IV 2 mg/kg, individual mice 1-3, read-out: MRTINF_pred): 6.45 min | MRT last (male, ICR, mouse, plasma, iv, 2 mg/kg, IV 2 mg/kg, individual mice 1-3, read-out: MRTlast): 5.42 min | Tmax (male, ICR, mouse, plasma, iv, 2 mg/kg, IV 2 mg/kg, individual mice 1-3, read-out: Tmax): 5 min | AUC(0-t) (male, ICR, mouse, plasma, iv, 2 mg/kg, IV 2 mg/kg, mean of mice 1#-3#, read-out: AUC0-t, Mean): 63.6 ng·h/mL | AUC(0-inf) (male, ICR, mouse, plasma, iv, 2 mg/kg, IV 2 mg/kg, mean of mice 1#-3#, read-out: AUC0-∞, Mean): 65.9 ng·h/mL | clearance (male, ICR, mouse, plasma, iv, 2 mg/kg, IV 2 mg/kg, mean of mice 1#-3#, read-out: Cl, Mean (converted)): 524 mL/min/kg | Cmax (male, ICR, mouse, plasma, iv, 2 mg/kg, IV 2 mg/kg, mean of mice 1#-3#, read-out: Cmax, Mean): 237 ng/mL | MRT last (male, ICR, mouse, plasma, iv, 2 mg/kg, IV 2 mg/kg, mean of mice 1#-3#, read-out: MRT0-t, Mean): 5.81 min | MRT inf (male, ICR, mouse, plasma, iv, 2 mg/kg, IV 2 mg/kg, mean of mice 1#-3#, read-out: MRT0-∞, Mean): 6.96 min | half-life (male, ICR, mouse, plasma, iv, 2 mg/kg, IV 2 mg/kg, mean of mice 1#-3#, read-out: T1/2, Mean (converted)): 6.36 min | Tmax (male, ICR, mouse, plasma, iv, 2 mg/kg, IV 2 mg/kg, mean of mice 1#-3#, read-out: Tmax, Mean): 5 min | Vd (male, ICR, mouse, plasma, iv, 2 mg/kg, IV 2 mg/kg, mean of mice 1#-3#, read-out: Vz, Mean): 4.79 L/kg | AUC (male, ICR, mouse, plasma, iv, 2 mg/kg, i.v. 2 mg kg^−1, male ICR mice, n = 3, read-out: AUC0‐t, i.v.): 63.6 ± 14.2 ng·h/mL
